The record followed here is the OPERA property sets (Mansouri et al. 2018).

Molecules are shown by their SMILES.

Where the note is “25.0 °C”, `ClC=C(Cl)Cl` returned a log10 OH rate constant (cm³/molecule/s) of -11.6.

In the case of `CC(C)CC(C)(C)C`, the log10 OH rate constant (cm³/molecule/s) (25.0 °C) was -11.4.

Where the note is “25.0 °C”, `CC(=O)OCC(C)C` came in with a log10 OH rate constant (cm³/molecule/s) of -11.3.

For `C#CCCC`, under “25.0 °C”, the log10 OH rate constant (cm³/molecule/s) was -11.

For the setting “25.0 °C”, `C=C1CCC2CC1C2(C)C` (stereo not drawn) displayed a log10 OH rate constant (cm³/molecule/s) of -10.1.

Turning to `O=CC=O`, the log10 OH rate constant (cm³/molecule/s) (25.0 °C) was -10.9.

Take `C1=CC2CCC1C2`: the log10 OH rate constant (cm³/molecule/s) (25.0 °C) is -10.3.

Turning to `c1ccc2c(c1)CCC2`, the log10 OH rate constant (cm³/molecule/s) (25.0 °C) was -11.

Take `CC(C)(C)c1ccccc1`: for the setting “25.0 °C”, the log10 OH rate constant (cm³/molecule/s) is -11.3.

In the case of `COO`, the log10 OH rate constant (cm³/molecule/s) (25.0 °C) was -11.3.

Where the note is “25.0 °C”, `C=CCCCC` returned a log10 OH rate constant (cm³/molecule/s) of -10.4.

Compound `CC(C)(N)CO` displayed a log10 OH rate constant (cm³/molecule/s) (25.0 °C) of -10.6.

`CC(=O)C(C)(C)C` displayed a log10 OH rate constant (cm³/molecule/s) (25.0 °C) of -11.9.

Where the note is “25.0 °C”, `CC(C)C(=O)O` returned a log10 OH rate constant (cm³/molecule/s) of -11.7.

Take `C=C/C=C\C`: under “25.0 °C”, the log10 OH rate constant (cm³/molecule/s) was -9.99.

For the compound `CC1=CCC(C(C)C)C=C1` (stereo not drawn), the log10 OH rate constant (cm³/molecule/s) (25.0 °C) was -9.5.

`C=CC=O` yielded a log10 OH rate constant (cm³/molecule/s) (25.0 °C) of -10.7.

Under “25.0 °C”, `C=CC=C` registered a log10 OH rate constant (cm³/molecule/s) of -10.2.

`Cc1ccoc1` registered a log10 OH rate constant (cm³/molecule/s) (25.0 °C) of -10.

On to `C1CCOC1`, for which, for the setting “25.0 °C”, the log10 OH rate constant (cm³/molecule/s) was -10.8.

As to `C=C(CCl)CCl`, for the setting “25.0 °C”, the log10 OH rate constant (cm³/molecule/s) is -10.5.

For the compound `FC(F)(F)Cl`, the log10 OH rate constant (cm³/molecule/s) (25.0 °C) was below -15.2.

Consider `CC(C)C=O`, for which the log10 OH rate constant (cm³/molecule/s) (25.0 °C) is -10.6.

For `CC(C)(C)C=O`, the log10 OH rate constant (cm³/molecule/s) (25.0 °C) was -10.6.

For the compound `FCCl`, where the note is “25.0 °C”, the log10 OH rate constant (cm³/molecule/s) is -13.4.

Regarding `Clc1ccccc1`, the log10 OH rate constant (cm³/molecule/s) (25.0 °C) was -12.1.

Compound `C1CCCOCC1` came in with a log10 OH rate constant (cm³/molecule/s) (25.0 °C) of -10.8.

The compound `O=CO` yielded a log10 OH rate constant (cm³/molecule/s) (25.0 °C) of -12.3.

Under “25.0 °C”, `FC(F)(F)F` registered a log10 OH rate constant (cm³/molecule/s) below -15.4.

Where the note is “24.0 °C”, `c1cscn1` had a log10 OH rate constant (cm³/molecule/s) of -11.9.

In the case of `C=CF`, the log10 OH rate constant (cm³/molecule/s) (25.0 °C) was -11.3.

Under “25.0 °C”, `ClCCl` had a log10 OH rate constant (cm³/molecule/s) of -12.8.

`c1ccc2c(c1)Cc1ccccc1-2` showed a log10 OH rate constant (cm³/molecule/s) (25.0 °C) of -10.9.

In turn, `CC(=O)OC(C)C` came in with a log10 OH rate constant (cm³/molecule/s) (25.0 °C) of -11.5.

The compound `O=Cc1ccccc1` returned a log10 OH rate constant (cm³/molecule/s) (25.0 °C) of -10.9.

On to `CC(C)COCC(C)C`, for which the log10 OH rate constant (cm³/molecule/s) (25.0 °C) was -10.6.

As for `CCC(O)CC`, under “25.0 °C”, the log10 OH rate constant (cm³/molecule/s) was -10.9.

Under “25.0 °C”, `C1CCCCCCC1` yielded a log10 OH rate constant (cm³/molecule/s) of -10.9.

Take `CC(=O)CC(C)C`: the log10 OH rate constant (cm³/molecule/s) (25.0 °C) is -10.9.

`CCOCOCC` showed a log10 OH rate constant (cm³/molecule/s) (25.0 °C) of -10.8.

With `CCc1ccccc1C`, the log10 OH rate constant (cm³/molecule/s) (25.0 °C) was -10.9.

With `CCCCC(C)(C)C`, the log10 OH rate constant (cm³/molecule/s) (25.0 °C) was -11.3.

For the setting “25.0 °C”, `Cc1ccccc1` yielded a log10 OH rate constant (cm³/molecule/s) of -11.2.

For `Clc1ccc(Cl)c2ccccc12`, the log10 OH rate constant (cm³/molecule/s) (25.0 °C) is -11.2.

Under “25.0 °C”, `CC=C=O` yielded a log10 OH rate constant (cm³/molecule/s) of -10.2.

As to `C1=CC2C=CC1C2`, where the note is “25.0 °C”, the log10 OH rate constant (cm³/molecule/s) is -9.92.

Take `CCOC(C)=O`: for the setting “25.0 °C”, the log10 OH rate constant (cm³/molecule/s) was -11.8.

In the case of `CCCSCCC`, under “25.0 °C”, the log10 OH rate constant (cm³/molecule/s) was -10.7.

Turning to `COCCO`, under “25.0 °C”, the log10 OH rate constant (cm³/molecule/s) is -10.9.

`C1COCCO1` showed a log10 OH rate constant (cm³/molecule/s) (25.0 °C) of -11.

In turn, `COP(N)(=S)OC` gave a log10 OH rate constant (cm³/molecule/s) (25.0 °C) of -9.61.

For the compound `C=CC(=C)CCC=C(C)C`, the log10 OH rate constant (cm³/molecule/s) (25.0 °C) is -9.67.

Take `CCCC(=O)CC`: the log10 OH rate constant (cm³/molecule/s) (25.0 °C) was -11.2.

In the case of `O=C1CCC1`, the log10 OH rate constant (cm³/molecule/s) (25.0 °C) is -12.1.

`CCN(O)CC` returned a log10 OH rate constant (cm³/molecule/s) (25.0 °C) of -10.

In turn, `C=COC` had a log10 OH rate constant (cm³/molecule/s) (26.0 °C) of -10.5.

`Cc1ccccc1O` gave a log10 OH rate constant (cm³/molecule/s) (25.0 °C) of -10.4.

`CCc1cccc(C)c1` came in with a log10 OH rate constant (cm³/molecule/s) (25.0 °C) of -10.7.

The compound `CC(C)C1CC1` gave a log10 OH rate constant (cm³/molecule/s) (25.0 °C) of -11.5.

The compound `C=C` yielded a log10 OH rate constant (cm³/molecule/s) (25.0 °C) of -11.1.

Where the note is “25.0 °C”, `FC(Cl)Cl` came in with a log10 OH rate constant (cm³/molecule/s) of -13.5.

`Cc1ccccc1[N+](=O)[O-]` returned a log10 OH rate constant (cm³/molecule/s) (25.0 °C) of -12.2.

The compound `Clc1ccc(Cl)cc1` showed a log10 OH rate constant (cm³/molecule/s) (25.0 °C) of -12.5.

`CCC(C)S` (stereo not drawn) gave a log10 OH rate constant (cm³/molecule/s) (25.0 °C) of -10.4.

For the setting “25.0 °C”, `Sc1ccccc1` had a log10 OH rate constant (cm³/molecule/s) of -11.

Where the note is “25.0 °C”, `CCCc1ccccc1` showed a log10 OH rate constant (cm³/molecule/s) of -11.2.

For the setting “25.0 °C”, `CCCCC(C)O` (stereo not drawn) came in with a log10 OH rate constant (cm³/molecule/s) of -10.9.

`CCC` displayed a log10 OH rate constant (cm³/molecule/s) (25.0 °C) of -11.9.

As to `O=[N+]([O-])c1ccc2ccccc2c1`, under “25.0 °C”, the log10 OH rate constant (cm³/molecule/s) was -11.3.

Consider `CC(C)C(C)(C)C`, for which, where the note is “25.0 °C”, the log10 OH rate constant (cm³/molecule/s) was -11.4.

Take `C1COCOC1`: the log10 OH rate constant (cm³/molecule/s) (25.0 °C) is -11.

`Nc1ccc(Cc2ccc(N)cc2)cc1` gave a log10 OH rate constant (cm³/molecule/s) (25.0 °C) of -10.5.

In turn, `CCCCCCCCC(C)=O` registered a log10 OH rate constant (cm³/molecule/s) (25.0 °C) of -10.9.

As to `CCCCS`, where the note is “25.0 °C”, the log10 OH rate constant (cm³/molecule/s) is -10.3.

As for `CCCCC=O`, the log10 OH rate constant (cm³/molecule/s) (25.0 °C) was -10.5.

As to `Cc1cccc2ccccc12`, the log10 OH rate constant (cm³/molecule/s) (25.0 °C) is -10.3.

In turn, `OCC(Cl)(Cl)Cl` came in with a log10 OH rate constant (cm³/molecule/s) (25.0 °C) of -12.6.

Compound `CC1=CC=C(C(C)C)CC1` returned a log10 OH rate constant (cm³/molecule/s) (21.0 °C) of -9.44.

As to `c1ccc2occc2c1`, the log10 OH rate constant (cm³/molecule/s) (25.0 °C) was -10.4.

Where the note is “25.0 °C”, `Nc1ccc(Cl)cc1` came in with a log10 OH rate constant (cm³/molecule/s) of -10.4.

`C1CCC2CCCCC2C1` (stereo not drawn) came in with a log10 OH rate constant (cm³/molecule/s) (25.0 °C) of -10.7.

Take `CCSC`: the log10 OH rate constant (cm³/molecule/s) (25.0 °C) is -11.1.

`OCCO`: the log10 OH rate constant (cm³/molecule/s) (25.0 °C) is -11.1.

For `CC(C)c1ccccc1`, the log10 OH rate constant (cm³/molecule/s) (25.0 °C) is -11.2.

On to `CC1=CC[C@@H](C(C)C)CC1`, for which, under “25.0 °C”, the log10 OH rate constant (cm³/molecule/s) was -9.9.

The compound `FC(F)(F)c1ccccc1` yielded a log10 OH rate constant (cm³/molecule/s) (25.0 °C) of -12.3.

Consider `CCCCCCCC`, for which, under “25.0 °C”, the log10 OH rate constant (cm³/molecule/s) is -11.1.

`ClC(Cl)Cl` displayed a log10 OH rate constant (cm³/molecule/s) (25.0 °C) of -13.

Take `C=C(C)C`: the log10 OH rate constant (cm³/molecule/s) (25.0 °C) was -10.3.

Consider `O=CCCCC=O`, for which the log10 OH rate constant (cm³/molecule/s) (25.0 °C) is -10.6.

Take `C=CC=CC=C`: where the note is “25.0 °C”, the log10 OH rate constant (cm³/molecule/s) was -10.3.

Consider `Cc1ccc(O)cc1`, for which the log10 OH rate constant (cm³/molecule/s) (25.0 °C) is -10.3.

Turning to `CC(O)CO` (stereo not drawn), the log10 OH rate constant (cm³/molecule/s) (25.0 °C) is -10.9.

In turn, `c1cc[nH]c1` had a log10 OH rate constant (cm³/molecule/s) (25.0 °C) of -9.96.

Consider `CCCCCCCCCCCCC`, for which the log10 OH rate constant (cm³/molecule/s) (25.0 °C) is -10.8.

`O=[N+]([O-])c1ccccc1` registered a log10 OH rate constant (cm³/molecule/s) (25.0 °C) of -12.9.

On to `CCOC(C)(C)OCC`, for which the log10 OH rate constant (cm³/molecule/s) (25.0 °C) was -10.9.

Turning to `COC(C)=O`, for the setting “23.0 °C”, the log10 OH rate constant (cm³/molecule/s) was -12.5.

In turn, `CC(C)(C)C(C)(C)C` gave a log10 OH rate constant (cm³/molecule/s) (25.0 °C) of -12.

Where the note is “25.0 °C”, `CF` gave a log10 OH rate constant (cm³/molecule/s) of -13.8.

In turn, `Cc1ccc(C)c(C)c1` gave a log10 OH rate constant (cm³/molecule/s) (25.0 °C) of -10.5.

The compound `c1ccc2c(c1)CCCC2` displayed a log10 OH rate constant (cm³/molecule/s) (25.0 °C) of -10.5.

In the case of `C=C=O`, the log10 OH rate constant (cm³/molecule/s) (25.0 °C) is -10.8.

For the compound `CBr`, for the setting “25.0 °C”, the log10 OH rate constant (cm³/molecule/s) is -13.4.

On to `CC(C)=Cc1ccccc1`, for which the log10 OH rate constant (cm³/molecule/s) (25.0 °C) is -10.5.

In the case of `CCCCCCCCCCCCCCCC`, the log10 OH rate constant (cm³/molecule/s) (25.0 °C) was -10.6.

Compound `CC(C)C(C)O` (stereo not drawn) came in with a log10 OH rate constant (cm³/molecule/s) (25.0 °C) of -10.9.

Compound `COCCOCCOC` gave a log10 OH rate constant (cm³/molecule/s) (25.0 °C) of -10.8.
